Assay results: PubChem BioAssay (NCI)
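These data come from cells grown in 96-well plates and exposed to compound for 48 hours at five concentrations. GI50: concentration for 50% inhibition of growth. Definition used: TGI = concentration required for complete inhibition of growth.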

Key:
Assay in all cases: growth of human tumour cells (NCI), 48 h; in the data active = GI50 below about 0.43 µM; inactive = the rest
[1] = tested on: 786-0 renal
[2] = tested on: A498 renal
[3] = tested on: A549 NSCLC
[4] = tested on: ACHN renal
[5] = tested on: BT-549 breast
[6] = tested on: CAKI-1 renal
[7] = tested on: CCRF-CEM leukemia
[8] = tested on: COLO 205 colon
[9] = tested on: DU-145 prostate
[10] = tested on: HCC-2998 colon
[11] = tested on: HCT-116 colon
[12] = tested on: HCT-15 colon
[13] = tested on: HL-60(TB) leukemia
[14] = tested on: HOP-62 NSCLC
[15] = tested on: HOP-92 NSCLC
[16] = tested on: HS 578T breast
[17] = tested on: HT29 colon
[18] = tested on: IGROV1 ovarian
[19] = tested on: K-562 leukemia
[20] = tested on: KM12 colon
[21] = tested on: LOX IMVI melanoma
[22] = tested on: M14 melanoma
[23] = tested on: MALME-3M melanoma
[24] = tested on: MCF7 breast
[25] = tested on: MDA-MB-231 breast
[26] = tested on: MDA-MB-435
[27] = tested on: MOLT-4 leukemia
[28] = tested on: NCI-H226 lung
[29] = tested on: NCI-H23 lung
[30] = tested on: NCI-H460 lung
[31] = tested on: NCI-H522 lung
[32] = tested on: NCI/ADR-RES ovarian
[33] = tested on: OVCAR-3 ovarian
[34] = tested on: OVCAR-4 ovarian
[35] = tested on: OVCAR-5 ovarian
[36] = tested on: OVCAR-8 ovarian
[37] = tested on: PC-3 prostate
[38] = tested on: RPMI-8226 leukemia
[39] = tested on: RXF 393 renal
[40] = tested on: SF-268 CNS
[41] = tested on: SF-295 CNS
[42] = tested on: SF-539 CNS
[43] = tested on: SK-MEL-2 melanoma
[44] = tested on: SK-MEL-28 melanoma
[45] = tested on: SK-MEL-5 melanoma
[46] = tested on: SK-OV-3 ovarian
[47] = tested on: SN12C renal
[48] = tested on: SNB-19 CNS
[49] = tested on: SNB-75 CNS
[50] = tested on: SR leukemia
[51] = tested on: SW-620 colon
[52] = tested on: T-47D breast
[53] = tested on: TK-10 renal
[54] = tested on: U251 CNS
[55] = tested on: UACC-257 melanoma
[56] = tested on: UACC-62 melanoma
[57] = tested on: UO-31 renal

COc1cc[nH]c1/C=C1\C(=O)Nc2ccc(F)c(I)c21
> 25 µM: TGI [1] | TGI [2] | TGI [3] | TGI [4] | TGI [5] | TGI [6] | TGI [7] | TGI [8] | TGI [9] | TGI [10] | TGI [11] | TGI [12] | TGI [13] | TGI [14] | TGI [15] | TGI [16] | TGI [17] | TGI [18] | TGI [19] | TGI [20] | TGI [21] | TGI [22] | TGI [23] | TGI [24] | TGI [25] | TGI [26] | TGI [27] | TGI [28] | TGI [29] | TGI [30] | TGI [31] | TGI [32] | TGI [33] | TGI [34] | TGI [35] | TGI [36] | TGI [37] | TGI [38] | TGI [39] | TGI [40] | TGI [41] | TGI [42] | TGI [43] | TGI [44] | TGI [45] | TGI [46] | TGI [47] | TGI [48] | TGI [49] | TGI [50] | TGI [51] | TGI [52] | TGI [53] | TGI [54] | TGI [55] | TGI [56] | TGI [57]
inactive: GI50 [1] > 25 µM | GI50 [2] > 25 µM | GI50 [3] > 25 µM | GI50 [4] > 25 µM | GI50 [5] > 25 µM | GI50 [6] 0.557 µM | GI50 [7] > 25 µM | GI50 [8] > 25 µM | GI50 [9] > 25 µM | GI50 [10] > 25 µM | GI50 [11] > 25 µM | GI50 [12] > 25 µM | GI50 [13] > 25 µM | GI50 [14] > 25 µM | GI50 [15] > 25 µM | GI50 [16] > 25 µM | GI50 [17] > 25 µM | GI50 [18] > 25 µM | GI50 [19] > 25 µM | GI50 [20] 1.25 µM | GI50 [21] > 25 µM | GI50 [22] > 25 µM | GI50 [23] > 25 µM | GI50 [24] > 25 µM | GI50 [25] > 25 µM | GI50 [26] > 25 µM | GI50 [27] > 25 µM | GI50 [28] > 25 µM | GI50 [29] > 25 µM | GI50 [30] > 25 µM | GI50 [31] > 25 µM | GI50 [32] > 25 µM | GI50 [33] > 25 µM | GI50 [34] > 25 µM | GI50 [35] > 25 µM | GI50 [36] > 25 µM | GI50 [37] > 25 µM | GI50 [38] > 25 µM | GI50 [39] > 25 µM | GI50 [40] > 25 µM | GI50 [41] > 25 µM | GI50 [42] > 25 µM | GI50 [43] > 25 µM | GI50 [44] > 25 µM | GI50 [45] > 25 µM | GI50 [46] > 25 µM | GI50 [47] > 25 µM | GI50 [48] > 25 µM | GI50 [49] > 25 µM | GI50 [50] > 25 µM | GI50 [51] > 25 µM | GI50 [52] > 25 µM | GI50 [53] > 25 µM | GI50 [54] > 25 µM | GI50 [55] > 25 µM | GI50 [56] > 25 µM | GI50 [57] > 25 µM
